Data on 4 compounds can be found in publication PMC3769273, “The Relationship between Functional Inhibition and Binding for KCa2 Channel Blockers” (PLoS ONE, 2013).

The target of experiment [1] is T1, KCa2.2 (Rattus norvegicus, UniProt P70604).
T1 construct: expressed in transfected cells; host or cells: HEK 293 cells, transient transfection (Lipofectamine 2000) with channel plasmid plus a separate GFP plasmid; Some experiments used stably transfected cells
The experiment can be described thus: cell-based. The note with it: for IC50: KCa2.2, standard physiological solution, measured at −20 mV, read-out: IC50 for inhibition of KCa2 current; for common Hill slope of concentration-inhibition curves: KCa2.2 current, standard solution. The class given is cell-based. How it is done: For electrophysiology, wild type and stably transfected HEK cells were plated in 35 mm dishes. In most experiments KCa2.2 was transiently expressed in HEK 293 cells. Transient transfection was achieved using Lipofectamine 2000 (Invitrogen) according to the manufacturer's instructions. Briefly, 2 µg channel plasmid and 1 µg QBI (QBiogene), which expresses GFP, was mixed with 3 µg Lipofectamine 2000 and added to each 35 mm dish. GFP expressing cells were identified by epi-fluorescence. Conventional whole cell recordings were made using an EPC9 amplifier controlled by Pulse software (Heka). Data were filtered at 1 kHz and acquired at 5 kHz. Borosilicate glass patch pipettes (2–5 MΩ) were coated with Sylgard resin, fire polished and filled with a solution containing (in mM): KCl 140, HEPES 10, K2HEDTA 5, and either 1.2 CaCl2 (free Ca^2+ = 1 µM) or no added Ca^2+ (free Ca^2+ <10 nM). The pH was adjusted to 7.2 with 1 M KOH. Free Ca^2+ concentrations were calculated using the REACT program (G.L. Smith, University of Glasgow) and stability constants for HEDTA published in Martell and Smith. Except where stated the extracellular solution was the same as the incubation medium used in binding experiments. As with binding studies all experiments were performed at room temperature (20–25°C).
Routinely, cells were held at −80 mV and 100 ms test pulses applied to potentials between −120 mV and 40 mV. […] In order to avoid contamination of KCa2 current by the endogenous currents, inhibition by blocking agents was measured at −20 mV.
Concentration-inhibition curves were fitted by a variant of the Hill equation with the form: [drawing 4] where y is the current in the presence of blocker at concentration [B] expressed as a percentage of control and n is the Hill coefficient.

The target of experiment [2] is T1, KCa2.2. Nature of the experiment: Competition binding: inhibition of 125I-apamin binding to HEK 293 cells expressing KCa2.2. The note with it: for Ki: KCa2.2, Cheng-Prussoff correction, read-out: K i for displacement of mono-iodoapamin. How it is done:
(§1) Radio-ligand binding studies were conducted using HEK 293 cell lines stably expressing KCa2.2 or KCa2.3. The cells were cultured in DMEM supplemented with 10% foetal calf serum, 2 mM L-glutamine, penicillin (200 units ml^–1) and streptomycin (100 µg ml^–1) in T500 flasks (Nunc). When confluent, these cells were harvested mechanically (to avoid the use of trypsin) into Ca^2+/Mg^2+ free HBSS. The cells were centrifuged at 50 g for 2 min, resuspended in DMEM at a density of approximately 2.5×10^6 cells ml^–1 and stored at 4°C until used (<2 hr). Cell density was estimated using a haemocytometer.
(§2) Routinely, incubations were performed in a total volume of 250 µl comprising 100 µl cell suspension (∼250000 cells), 100 µl ^125I-apamin and 50 µl displacing agent or incubation medium. The incubation medium contained (in mM) NaCl 140, KCl 5, MgCl2 1, CaCl2 2, glucose 10 and HEPES 10. The pH was adjusted to 7.4 with 1 M NaOH. Non-specific binding was estimated in the presence of 100 nM UCL 1848, a potent KCa2 channel blocker which causes maximal inhibition at this concentration (see Hosseini et al., Benton et al.[13]). Measurements for each test were performed in triplicate. Separation of cells from unbound ligand was achieved by rapid filtration through Whatman GF/B filters pre-treated with 0.3% v/v polyethyleneimine using a Skatron AS harvester. The quantity of labelled apamin bound was measured using a calibrated γ counter (LKB 1275) and expressed as fmol label/10^6 cells. All binding experiments were conducted at room temperature (20–25°C).
(§3) The ability of test compounds to inhibit ^125I-apamin binding was measured in the presence of 20–60 pM ^125I-apamin with or without the test compound. In every experiment each concentration of inhibitor was tested in triplicate and the data presented represents the mean of at least two separate experiments. Inhibition curves were fitted by a variant of Hill-Langmuir equation: [drawing 3] where B I is the specific binding of label in the presence of inhibitor as a percentage of the binding in its absence. Estimates of K i were obtained using the Cheng-Prussoff correction taking estimates of K L from the saturation binding studies.

The subject of experiment [3] is KCa2.3. As to conditions: KCa2.3, CHO cells, ref Hosseini et al. 2000; read-out: IC50 for inhibition of KCa2 current; cited from earlier work.
Experiment [4] has as its target T2, KCa2.3 (Rattus norvegicus, UniProt P70605).
T2 construct: expressed in transfected cells; host or cells: HEK 293 cell line stably expressing KCa2.3, made in house by zeocin selection
The experiment can be described thus: Competition binding: inhibition of 125I-apamin binding to HEK 293 cells expressing KCa2.3. The note with it: for Ki: KCa2.3, Cheng-Prussoff correction, read-out: K i for displacement of mono-iodoapamin. How it is done: as §1, §2, §3

T2 sequence (P70605 whole entry): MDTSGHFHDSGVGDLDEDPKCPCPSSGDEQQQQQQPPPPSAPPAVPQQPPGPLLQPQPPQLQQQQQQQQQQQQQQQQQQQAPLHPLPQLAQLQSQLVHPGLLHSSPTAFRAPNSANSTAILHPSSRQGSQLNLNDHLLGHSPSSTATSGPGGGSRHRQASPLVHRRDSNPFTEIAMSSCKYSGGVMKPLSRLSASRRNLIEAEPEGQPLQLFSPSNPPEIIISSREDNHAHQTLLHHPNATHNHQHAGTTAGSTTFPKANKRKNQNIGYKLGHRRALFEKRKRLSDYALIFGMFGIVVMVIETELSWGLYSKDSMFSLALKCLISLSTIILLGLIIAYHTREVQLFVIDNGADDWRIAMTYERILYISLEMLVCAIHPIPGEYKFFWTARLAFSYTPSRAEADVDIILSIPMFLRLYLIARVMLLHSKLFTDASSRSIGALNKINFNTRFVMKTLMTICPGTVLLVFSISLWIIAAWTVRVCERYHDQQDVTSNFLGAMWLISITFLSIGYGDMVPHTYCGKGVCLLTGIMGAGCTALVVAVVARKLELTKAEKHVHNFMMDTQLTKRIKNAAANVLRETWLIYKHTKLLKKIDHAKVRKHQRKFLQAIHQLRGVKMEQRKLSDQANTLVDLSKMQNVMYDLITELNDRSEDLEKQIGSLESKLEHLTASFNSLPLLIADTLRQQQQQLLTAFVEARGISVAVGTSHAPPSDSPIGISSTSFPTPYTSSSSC
T1 sequence (P70604 whole entry): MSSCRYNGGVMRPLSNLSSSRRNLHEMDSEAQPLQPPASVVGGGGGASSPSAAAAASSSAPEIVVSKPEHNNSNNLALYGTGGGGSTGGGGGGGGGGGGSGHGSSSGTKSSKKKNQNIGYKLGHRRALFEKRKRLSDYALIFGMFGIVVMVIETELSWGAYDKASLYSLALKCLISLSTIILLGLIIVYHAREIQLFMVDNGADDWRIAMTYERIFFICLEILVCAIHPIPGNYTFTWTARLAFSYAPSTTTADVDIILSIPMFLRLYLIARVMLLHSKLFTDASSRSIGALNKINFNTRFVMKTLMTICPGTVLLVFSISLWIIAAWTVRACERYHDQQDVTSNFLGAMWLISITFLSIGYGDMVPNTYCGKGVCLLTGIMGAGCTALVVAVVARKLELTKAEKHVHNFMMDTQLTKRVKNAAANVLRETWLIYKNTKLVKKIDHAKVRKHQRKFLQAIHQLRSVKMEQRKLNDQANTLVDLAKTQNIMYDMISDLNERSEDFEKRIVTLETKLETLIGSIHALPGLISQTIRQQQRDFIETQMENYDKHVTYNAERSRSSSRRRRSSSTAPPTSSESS

`Cc1cc(N)c2ccccc2[n+]1CCCCCCCCCC[n+]1c(C)cc(N)c2ccccc21` [Dequalinium, dequalinium]: the values for the IC50 on KCa2.2 [1] and with KCa2.3 [3] were 420 ± 99 nM and 920 ± 140 nM, respectively. Moreover, on KCa2.2 [1], the “common Hill slope of concentration-inhibition curves” value is on record as 0.7±0.04. Moreover, the Ki at KCa2.2 [2] turned out to be 977 ± 165 nM; on KCa2.3 [4], 865 ± 160 nM.

“8,14-diaza-1,7(1, 4)-diquinolinacyclotetradecaphane [UCL 1848]”: the values for the IC50 on KCa2.2 [1] and with KCa2.3 [3] were 0.125 ± 0.0025 nM and 2.1 ± 0.3 nM, respectively. In addition, the “common Hill slope of concentration-inhibition curves” value on KCa2.2 [1] was 0.7±0.04. Also, the “inhibition of total 125I-apamin binding” value on KCa2.2 [2] (100 nM UCL 1848, 30 pM 125I-apamin, KCa2.2 expressing HEK 293 cells) was “almost completely inhibited”; on KCa2.3 [4] (100 nM UCL 1848, 30 pM 125I-apamin, KCa2.3 expressing HEK 293 cells), “almost completely inhibited”. Further, the Ki at KCa2.2 [2] amounted to 0.095 ± 0.0017 nM; at KCa2.3 [4], 0.652 ± 0.18 nM.

As for `c1cc2cc(c1)C[n+]1ccc(c3ccccc31)NCc1ccc(cc1)CNc1cc[n+](c3ccccc13)C2` [UCL1684, 6,10–diaza-3(1,3),8(1,4)-dibenzena-1,5(1,4)- diquinolinacyclodecaphane], the half-inhibitory concentration (IC50) at KCa2.2 [1] was 0.53 ± 0.008 nM; in the experiment on KCa2.3 [3], 5.8 ± 0.3 nM. In addition, the “common Hill slope of concentration-inhibition curves” value at KCa2.2 [1] came to 0.7±0.04. For the same compound, the Ki on KCa2.2 [2] was 1.01 ± 0.022 nM; on KCa2.3 [4], 7.7 ± 1.6 nM.

In the case of `CC[N+](CC)(CC)CCOc1cccc(OCC[N+](CC)(CC)CC)c1OCC[N+](CC)(CC)CC` [Gallamine, gallamine], the figures for the IC50 at KCa2.2 [1] and with KCa2.3 [3] were 7000 ± 800 nM and 98000 ± 700 nM, respectively. Besides, the “common Hill slope of concentration-inhibition curves” value at KCa2.2 [1] worked out at 0.7±0.04. The Ki came out at 26000 ± 5000 nM at KCa2.2 [2] and 71000 ± 8000 nM on KCa2.3 [4].

One may read the IC50 as the concentration that gives 50% inhibition.
